pIC50: −log10 of the molar value.
What was measured:
[1] = target: T1, rat liver anandamide amidohydrolase (Rattus norvegicus, UniProt P97612); assay: Anandamide amidohydrolase assay, rat liver microsome fractions; format: biochemical
T1 construct: Anandamide amidohydrolase was measured in rat brain or rat liver microsome fractions; from tissue; host or cells: rat liver microsome fractions
T1 sequence (P97612 1-579): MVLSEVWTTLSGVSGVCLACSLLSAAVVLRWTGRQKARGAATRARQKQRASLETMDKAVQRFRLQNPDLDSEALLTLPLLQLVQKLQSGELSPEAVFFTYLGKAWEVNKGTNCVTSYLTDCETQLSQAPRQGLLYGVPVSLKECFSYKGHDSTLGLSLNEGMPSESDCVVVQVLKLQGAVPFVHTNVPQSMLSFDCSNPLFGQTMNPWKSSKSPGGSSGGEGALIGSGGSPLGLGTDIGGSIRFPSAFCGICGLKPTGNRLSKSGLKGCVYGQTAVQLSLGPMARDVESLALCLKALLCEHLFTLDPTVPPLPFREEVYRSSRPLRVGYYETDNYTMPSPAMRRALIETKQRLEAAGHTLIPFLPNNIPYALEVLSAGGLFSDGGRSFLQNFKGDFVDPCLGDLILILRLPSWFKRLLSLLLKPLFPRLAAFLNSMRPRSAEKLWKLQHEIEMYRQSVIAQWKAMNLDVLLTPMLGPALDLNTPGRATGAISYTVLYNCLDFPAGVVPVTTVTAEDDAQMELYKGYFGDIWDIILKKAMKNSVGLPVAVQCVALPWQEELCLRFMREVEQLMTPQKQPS
Protocol: Anandamide amidohydrolase was measured in rat brain or rat liver microsome fractions. […] After 10 min. of incubation, the reactions were stopped with cold methanol, the radiolabeled lipids extracted with chloroform, and the organic phases brought to dryness under a stream of N2 gas. The radioactive products were then fractionated by thin-layer chromatography (solvent system: chloroform/methanol/ammonia, 90:10:1 vol/vol/vol), collected by scraping appropriate areas of the chromatography plate, and quantified by liquid scintillation counting.

[2] = target: T2, anandamide amidohydrolase of intact astrocytes (Rattus norvegicus, UniProt P97612); assay: Assay in cultures of cortical astrocytes (anandamide amidohydrolase of intact cells); format: cell-based; settings: rat cortical astrocyte cultures, 20 min incubation, 37° C., radiolabeled arachidonic acid or phospholipids measured; read-out: IC50, inhibition of anandamide amidohydrolase of intact astrocytes
T2 construct: endogenous in cells; host or cells: primary rat cortical astrocytes, 3 weeks in culture
T2 sequence (P97612 1-579): T1 sequence (P97612 1-579)
Protocol: Cultures of rat cortical astrocytes, essentially free of neurons, were prepared following the standard procedures described in Cadas et al., J. Neurosci. 16, 3934-3942 (1996), and used after 3 weeks in culture. […] The organic phases were dried, and analyzed as follows. To measure radiolabeled anandamide and arachidonic acid, the organic extracts were fractionated by silica gel G column chromatography, as described in Fontana et al., Prostaglandins Leukotrienes Essential Fatty Acids 53, 301-308 (1995). Radiolabeled anandamide and arachidonic acid were eluted from the column with a solvent system of chloroform/methanol (9:1, vol/vol), and further purified by thin-layer chromatography (solvent system of chloroform/methanol/ammonia, 80:20:1, vol/vol/vol). To measure radiolabeled phospholipids, which were formed in intact cells from the enzymatic esterification of radiolabeled arachidonic acid, the organic extracts were fractionated by thin-layer chromatography (solvent system of chloroform/methanol/ammonia/water, 65:25:4:1, vol/vol/vol/vol).

[3] = system: uptake of radiolabeled anandamide; assay: Uptake and intracellular level of radiolabeled anandamide in cortical astrocyte cultures; format: cell-based; settings: rat cortical astrocyte cultures
[4] = target: rat brain anandamide amidohydrolase (Rattus norvegicus, UniProt P97612); assay: biochemical
Protocol: Anandamide amidohydrolase was measured in rat brain or rat liver microsome fractions. The fractions (0.1 mg of protein) were prepared following the protocols of Desarnaud et al., J. Biol. Chem. 270, 6030-6035 (1995), and were incubated in 50 mM Tris-Cl (pH 7.4) at 37° C., in the presence of radiolabeled anandamide obtained from New England Nuclear, Wilmington, Del., 221 Ci/mmol), plus various concentrations of test inhibitor (0.1-100 μM). After 10 min. of incubation, the reactions were stopped with cold methanol, the radiolabeled lipids extracted with chloroform, and the organic phases brought to dryness under a stream of N2 gas. The radioactive products were then fractionated by thin-layer chromatography (solvent system: chloroform/methanol/ammonia, 90:10:1 vol/vol/vol), collected by scraping appropriate areas of the chromatography plate, and quantified by liquid scintillation counting.

inhibitory concentrations for liver enzyme relative to brain ([1]; liver versus brain anandamide amidohydrolase): more than 100 fold
pIC50 ([1]; rat liver microsome fractions, 10 min incubation, 37° C., pH 7.4, radiolabeled anandamide, read-out: IC50, inhibition of the liver enzyme): 4.01
pIC50 [2]: 6.30
pIC50 [4]: 6.15
SMILES: O=C1O/C(=C/Br)CCC1c1cccc2ccccc12 (stereo not drawn) [E-6-(bromomethylene)tetrahydro-3-(1-naphthalenyl)-2H-pyrane-2-one]
inhibition of uptake of radiolabeled anandamide [3]: does not inhibit
intracellular levels of radiolabeled anandamide ([3]; in the presence of the compound): greatly increased
